“And” between values parts separate entries of the source, which are not always exact repeats. Equal entries are not always repeated.
Key:
[1] = test system: calf intestinal alkaline phosphatase; experiment: Luminescent alkaline phosphatase assay with AP 4, luciferase and ATP; assay type: biochemical; conditions: 1 µM AP 4
Protocol: Alkaline Phosphatase (Promega Corp. M1821) was diluted in 50 mM Tris Cl, pH 9.3, 1 mM MgCl2, 0.1 mM ZnCl2 to a concentration of 1 fmol/µl to 0.01 zeptomole/µl.
A reaction solution was assembled containing 1 µM AP 4 (Figure 69); 100 µg/ml of the thermostable luciferase, 2 mM ATP; 10 mM MgCl2; 100 µM ZnCl2 in 50 mM Tris Cl, pH 8.5. This solution was allowed to incubate for 1 hour at room temperature to reduce background light production.
Quadruplicate wells in a luminometer plate (Nunc Maxisorb plate) were given 10 µl of the diluted alkaline phosphatase stocks and 100 µl of reaction solution. The plate was incubated at room temperature for 30 minutes, then the light produced by the solutions was measured using a Veritas Luminometer.

luciferase = experiment: No-enzyme control: activity of luciferase towards the luciferin derivative (background luminescence); conditions: for luminescence, no GUS: 50 mM MES, pH 6.3
Protocol: The reactions (Table 1) were assembled by first adding the water and 1 M BisTris solutions in individual 0.5 ml microfuge tubes, then adding the other components except for the GST #3 solution. Finally, the GST #3 (Figure 12) solution was added to the reactions, the resulting solution was mixed, and the time of addition noted. […]
The GST #3 addition was performed last and the solutions were mixed immediately after addition of GST #3. […] After mixing, the light produced by the solution was measured using a Turner TD 20/20 luminometer.
After assembly, the enzyme stock solutions were diluted 1:10 into 10 mM HEPES, pH 7.5 and the following additions were made to the reactions.
A 5 µl sample of the luciferol DMF solution was added to each of the reactions above and a timer was started upon the addition of the first luciferol/DMF solution to reaction 1. All reactions were kept at room temperature.
After incubating 5 minutes at room temperature, the light produced by these samples was measured using a Turner TD 20 luminometer.
To initiate the conversions, 5 µl of luciferol solution was added to reactions […], 6-9, and 11-15, and 10 µl of luciferol was added to reactions 5 and 10 and the tubes mixed after that addition. Immediately after luciferol addition to reaction 1, a timer was started and the time of luciferol addition to the other tubes noted. After mixing, reaction 11-15 were placed at 37°C.
After incubating 10 minutes at room temperature, the light produced by these samples was read using a Turner TD 20 luminometer (Table 18).
To initiate Step 1, 45 µl of enzyme and buffer were added to each well.
Solution A and Solution B are components of the NADPH Regeneration System (V9510, Promega Corp., Madison WI). […] Solution B contains 40 units/ml glucose-6-phosphate dehydrogenase in 5 mM citrate pH 5.5.

beta-glucuronidase (GUS) = target: T1, beta-glucuronidase (GUS) (Homo sapiens, UniProt P08236); experiment: Beta-glucuronidase assay with luciferin 6'-glucuronide (luminescent) or 4-methylumbelliferyl glucuronide (fluorescent); assay type: biochemical; conditions: for limit-of-detection: GUS enzyme detected, luminescent vs fluorescent substrate; for luminescence, + GUS: pH 6.3, 15 minutes
T1 construct: purchased Sigma-Aldrich
T1 sequence (P08236 23-651): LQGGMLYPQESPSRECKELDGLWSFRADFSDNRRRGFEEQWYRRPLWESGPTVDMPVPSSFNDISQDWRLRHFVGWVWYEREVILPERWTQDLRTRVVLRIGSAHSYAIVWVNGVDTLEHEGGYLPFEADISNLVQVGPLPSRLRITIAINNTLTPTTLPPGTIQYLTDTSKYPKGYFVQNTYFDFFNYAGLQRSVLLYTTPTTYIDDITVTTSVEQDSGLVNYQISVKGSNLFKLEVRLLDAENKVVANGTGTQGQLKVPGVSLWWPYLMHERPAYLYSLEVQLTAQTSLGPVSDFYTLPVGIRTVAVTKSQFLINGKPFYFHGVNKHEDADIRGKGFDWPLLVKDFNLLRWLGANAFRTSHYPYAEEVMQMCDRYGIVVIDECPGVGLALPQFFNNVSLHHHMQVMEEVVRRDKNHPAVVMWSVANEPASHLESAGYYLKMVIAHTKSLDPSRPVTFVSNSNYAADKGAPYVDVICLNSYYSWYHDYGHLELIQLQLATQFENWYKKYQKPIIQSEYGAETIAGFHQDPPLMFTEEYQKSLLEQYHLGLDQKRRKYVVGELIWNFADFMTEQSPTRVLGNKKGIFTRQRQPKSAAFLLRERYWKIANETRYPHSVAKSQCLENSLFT
Protocol: The source of the human enzyme was Sigma-Aldrich. GUS was incubated with the substrate in 50 mM MES, pH 6.3, for 15 minutes. […]

O=C(O)[C@H]1CSC(c2nc3ccc(OCc4ccc(OP(=O)(O)O)cc4)cc3s2)=N1 [AP-4, 6-(4-phosphoric acid benzylether) luciferin]
Net Reading ([1]; # AP molecules 0): 0
Avg Reading ([1]; # AP molecules 6): 2714.67
Net Reading ([1]; # AP molecules 6): 89
light reading, Reaction 1 ([1]; # AP molecules 6): 2706
light reading, Reaction 2 ([1]; # AP molecules 6): 2807
light reading, Reaction 3 ([1]; # AP molecules 6): 2631
Avg Reading ([1]; # AP molecules 60): 2772.5
Net Reading ([1]; # AP molecules 60): 148
light reading, Reaction 1 ([1]; # AP molecules 60): 2920
light reading, Reaction 2 ([1]; # AP molecules 60): 2795
light reading, Reaction 3 ([1]; # AP molecules 60): 2728
light reading, Reaction 4 ([1]; # AP molecules 60): 2647
Avg Reading ([1]; # AP molecules 600): 3079.8
Net Reading ([1]; # AP molecules 600): 455
light reading, Reaction 1 ([1]; # AP molecules 600): 3118
light reading, Reaction 2 ([1]; # AP molecules 600): 3051
light reading, Reaction 3 ([1]; # AP molecules 600): 3345
light reading, Reaction 4 ([1]; # AP molecules 600): 2805
Avg Reading ([1]; # AP molecules 6,000): 3185
Net Reading ([1]; # AP molecules 6,000): 560
light reading, Reaction 1 ([1]; # AP molecules 6,000): 3189
light reading, Reaction 2 ([1]; # AP molecules 6,000): 3144
light reading, Reaction 3 ([1]; # AP molecules 6,000): 3002
light reading, Reaction 4 ([1]; # AP molecules 6,000): 3405
Avg Reading ([1]; # AP molecules 60,000): 5685.3
Net Reading ([1]; # AP molecules 60,000): 3060
light reading, Reaction 1 ([1]; # AP molecules 60,000): 5956
light reading, Reaction 2 ([1]; # AP molecules 60,000): 5641
light reading, Reaction 3 ([1]; # AP molecules 60,000): 5416
light reading, Reaction 4 ([1]; # AP molecules 60,000): 5728
Avg Reading ([1]; # AP molecules 600,000): 30658.5
Net Reading ([1]; # AP molecules 600,000): 28034
light reading, Reaction 1 ([1]; # AP molecules 600,000): 30042
light reading, Reaction 2 ([1]; # AP molecules 600,000): 31132
light reading, Reaction 3 ([1]; # AP molecules 600,000): 29781
light reading, Reaction 4 ([1]; # AP molecules 600,000): 31679
Avg Reading ([1]; # AP molecules 6,000,000): 274510.5
Net Reading ([1]; # AP molecules 6,000,000): 271886
light reading, Reaction 1 ([1]; # AP molecules 6,000,000): 281115
light reading, Reaction 2 ([1]; # AP molecules 6,000,000): 254693
light reading, Reaction 3 ([1]; # AP molecules 6,000,000): 265592
light reading, Reaction 4 ([1]; # AP molecules 6,000,000): 296642
Avg Reading ([1]; # AP molecules 60,000,000): 2394497
Net Reading ([1]; # AP molecules 60,000,000): 2391872
light reading, Reaction 1 ([1]; # AP molecules 60,000,000): 2639163
light reading, Reaction 2 ([1]; # AP molecules 60,000,000): 2283882
light reading, Reaction 3 ([1]; # AP molecules 60,000,000): 2320675
light reading, Reaction 4 ([1]; # AP molecules 60,000,000): 2334267
Avg Reading (luciferase): 2624.5
light reading, Reaction 1 (luciferase): 2620
light reading, Reaction 2 (luciferase): 2735
light reading, Reaction 3 (luciferase): 2612
light reading, Reaction 4 (luciferase): 2531

O=C(O)[C@H]1O[C@@H](Oc2ccc3nc(C4=N[C@@H](C(=O)O)CS4)sc3c2)[C@H](O)[C@@H](O)[C@@H]1O [Luciferin 6'-glucuronide]
limit-of-detection (beta-glucuronidase (GUS)): 0.28 ng/mL
signal-to-noise, luminescence (beta-glucuronidase (GUS); [GUS] 4.3 ng/ml): 68
signal-to-noise, luminescence (beta-glucuronidase (GUS); [GUS] 8.7 ng/ml): 133
signal-to-noise, luminescence (beta-glucuronidase (GUS); [GUS] 34.7 ng/ml): 649
signal-to-noise, luminescence (beta-glucuronidase (GUS); [GUS] 69.4 ng/ml): 1411
signal-to-noise, luminescence (beta-glucuronidase (GUS); [GUS] 138.8 ng/ml): 3104
signal-to-noise, luminescence (beta-glucuronidase (GUS); [GUS] 277.5 ng/ml): 7300

OC[C@H]1CSC(c2nc3ccc(O)cc3s2)=N1 [luciferol]
light produced (luciferase; Table 18 Rx 1: no enzyme, KPO4 pH 7.4, room temperature, 30/60/95/190/280 minutes): 6.077 and 6.091 and 5.849 and 4.364 and 7.694
light produced (luciferase; Table 18 Rx 11: no enzyme, 37°C, time): 5.814 and 6.078 and 6.302 and 6.889 and 8.399

Cc1cc(=O)oc2cc(O[C@@H]3O[C@H](C(=O)O)[C@@H](O)[C@H](O)[C@H]3O)ccc12 [4-methylumbelliferyl glucuronide, reference compound]
Km (beta-glucuronidase (GUS); 50 mM MES, pH 6.3): 59 ± 8 µM
limit-of-detection (beta-glucuronidase (GUS)): 2.01 ng/mL

O=C(O)[C@H]1O[C@@H](Oc2ccc3nc(C4=N[C@@H](C(=O)O)CS4)sc3c2)[C@H](O)[C@@H](O)[C@@H]1O [drawing 190]
luminescence, + GUS (beta-glucuronidase (GUS); [substrate] 3.5 uM, 50 mM MES): 46,210
luminescence, + GUS (beta-glucuronidase (GUS); [substrate] 31.5 uM, 50 mM MES): 232,533
luminescence, + GUS (beta-glucuronidase (GUS); [substrate] 94.4 uM, 50 mM MES): 423,619
luminescence, + GUS (beta-glucuronidase (GUS); [substrate] 283.1 uM, 50 mM MES): 696,778
luminescence, + GUS (beta-glucuronidase (GUS); [substrate] 849.3 uM, 50 mM MES): 994,977
luminescence, + GUS (beta-glucuronidase (GUS); [substrate] 2548.0 uM, 50 mM MES): 1,335,243
luminescence, + GUS (beta-glucuronidase (GUS); [substrate] […], 50 mM MES): 107,502
luminescence, no GUS (luciferase; [substrate] 3.5 uM): 1,108
luminescence, no GUS (luciferase; [substrate] 31.5 uM): 5,068
luminescence, no GUS (luciferase; [substrate] 94.4 uM): 13,091
luminescence, no GUS (luciferase; [substrate] 283.1 uM): 34,127
luminescence, no GUS (luciferase; [substrate] 849.3 uM): 91,975
luminescence, no GUS (luciferase; [substrate] 2548.0 uM): 209,219
luminescence, no GUS (luciferase; [substrate] […]): 2,190

Reference: patent EP1935986B1, “Luminogenic and fluorogenic compounds and methods to detect molecules or conditions” (priority 2005, dated 2006)
